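These data come from cells grown in 96-well plates and exposed to compound for 48 hours at five concentrations. GI50: concentration for 50% inhibition of growth. TGI: total growth inhibition.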
Legend:
Assay in all cases: growth of human tumour cells (NCI), 48 h
OVCAR-4 ovarian = test system: OVCAR-4 ovarian
NCI-H522 lung = test system: NCI-H522 lung
HCT-116 colon = test system: HCT-116 colon
CAKI-1 renal = test system: CAKI-1 renal
MOLT-4 leukemia = test system: MOLT-4 leukemia
OVCAR-8 ovarian = test system: OVCAR-8 ovarian
CCRF-CEM leukemia = test system: CCRF-CEM leukemia
MDA-MB-435 = test system: MDA-MB-435
K-562 leukemia = test system: K-562 leukemia
SN12C renal = test system: SN12C renal
SK-MEL-5 melanoma = test system: SK-MEL-5 melanoma
UO-31 renal = test system: UO-31 renal
HOP-92 NSCLC = test system: HOP-92 NSCLC
SK-MEL-28 melanoma = test system: SK-MEL-28 melanoma
BT-549 breast = test system: BT-549 breast
U251 CNS = test system: U251 CNS
COLO 205 colon = test system: COLO 205 colon
HS 578T breast = test system: HS 578T breast
UACC-62 melanoma = test system: UACC-62 melanoma
HCC-2998 colon = test system: HCC-2998 colon
OVCAR-5 ovarian = test system: OVCAR-5 ovarian
PC-3 prostate = test system: PC-3 prostate
NCI-H23 lung = test system: NCI-H23 lung
ACHN renal = test system: ACHN renal
RPMI-8226 leukemia = test system: RPMI-8226 leukemia
SR leukemia = test system: SR leukemia
SK-OV-3 ovarian = test system: SK-OV-3 ovarian
SF-295 CNS = test system: SF-295 CNS
A498 renal = test system: A498 renal
EKVX NSCLC = test system: EKVX NSCLC
IGROV1 ovarian = test system: IGROV1 ovarian
A549 NSCLC = test system: A549 NSCLC
UACC-257 melanoma = test system: UACC-257 melanoma
SW-620 colon = test system: SW-620 colon
SK-MEL-2 melanoma = test system: SK-MEL-2 melanoma
MDA-MB-231 breast = test system: MDA-MB-231 breast
MCF7 breast = test system: MCF7 breast
MALME-3M melanoma = test system: MALME-3M melanoma
NCI-H226 lung = test system: NCI-H226 lung
HOP-62 NSCLC = test system: HOP-62 NSCLC
M14 melanoma = test system: M14 melanoma
SNB-19 CNS = test system: SNB-19 CNS
786-0 renal = test system: 786-0 renal
SNB-75 CNS = test system: SNB-75 CNS
HL-60(TB) leukemia = test system: HL-60(TB) leukemia
HCT-15 colon = test system: HCT-15 colon
LOX IMVI melanoma = test system: LOX IMVI melanoma
T-47D breast = test system: T-47D breast
SF-539 CNS = test system: SF-539 CNS
TK-10 renal = test system: TK-10 renal
RXF 393 renal = test system: RXF 393 renal
KM12 colon = test system: KM12 colon
HT29 colon = test system: HT29 colon
DU-145 prostate = test system: DU-145 prostate
SF-268 CNS = test system: SF-268 CNS
OVCAR-3 ovarian = test system: OVCAR-3 ovarian
NCI/ADR-RES ovarian = test system: NCI/ADR-RES ovarian
NCI-H460 lung = test system: NCI-H460 lung

Q: Which results are given for `O=C(NC(=S)Nc1ccccn1)c1ccccc1`?
A: GI50 (OVCAR-4 ovarian): 24.4 µM; TGI (OVCAR-4 ovarian): > 100 µM; GI50 (NCI-H522 lung): > 100 µM; TGI (NCI-H522 lung): > 100 µM; GI50 (HCT-116 colon): > 100 µM; TGI (HCT-116 colon): > 100 µM; GI50 (CAKI-1 renal): > 100 µM; TGI (CAKI-1 renal): > 100 µM; GI50 (MOLT-4 leukemia): > 100 µM; TGI (MOLT-4 leukemia): > 100 µM; GI50 (OVCAR-8 ovarian): > 100 µM; TGI (OVCAR-8 ovarian): > 100 µM; GI50 (CCRF-CEM leukemia): > 100 µM; TGI (CCRF-CEM leukemia): > 100 µM; GI50 (MDA-MB-435): > 100 µM; TGI (MDA-MB-435): > 100 µM; GI50 (K-562 leukemia): > 100 µM; TGI (K-562 leukemia): > 100 µM; GI50 (SN12C renal): > 100 µM; TGI (SN12C renal): > 100 µM; GI50 (SK-MEL-5 melanoma): > 100 µM; TGI (SK-MEL-5 melanoma): > 100 µM; GI50 (UO-31 renal): 39.2 µM; TGI (UO-31 renal): > 100 µM; GI50 (HOP-92 NSCLC): 83.9 µM; TGI (HOP-92 NSCLC): > 100 µM; GI50 (SK-MEL-28 melanoma): > 100 µM; TGI (SK-MEL-28 melanoma): > 100 µM; GI50 (BT-549 breast): > 100 µM; TGI (BT-549 breast): > 100 µM; GI50 (U251 CNS): > 100 µM; TGI (U251 CNS): > 100 µM; GI50 (COLO 205 colon): > 100 µM; TGI (COLO 205 colon): > 100 µM; GI50 (HS 578T breast): 71.5 µM; TGI (HS 578T breast): > 100 µM; GI50 (UACC-62 melanoma): > 100 µM; TGI (UACC-62 melanoma): > 100 µM; GI50 (HCC-2998 colon): > 100 µM; TGI (HCC-2998 colon): > 100 µM; GI50 (OVCAR-5 ovarian): > 100 µM; TGI (OVCAR-5 ovarian): > 100 µM; GI50 (PC-3 prostate): > 100 µM; TGI (PC-3 prostate): > 100 µM; GI50 (NCI-H23 lung): > 100 µM; TGI (NCI-H23 lung): > 100 µM; GI50 (ACHN renal): > 100 µM; TGI (ACHN renal): > 100 µM; GI50 (RPMI-8226 leukemia): > 100 µM; TGI (RPMI-8226 leukemia): > 100 µM; GI50 (SR leukemia): > 100 µM; TGI (SR leukemia): > 100 µM; GI50 (SK-OV-3 ovarian): > 100 µM; TGI (SK-OV-3 ovarian): > 100 µM; GI50 (SF-295 CNS): > 100 µM; TGI (SF-295 CNS): > 100 µM; GI50 (A498 renal): 50.8 µM; TGI (A498 renal): > 100 µM; GI50 (EKVX NSCLC): 85.2 µM; TGI (EKVX NSCLC): > 100 µM; GI50 (IGROV1 ovarian): 61.7 µM; TGI (IGROV1 ovarian): > 100 µM; GI50 (A549 NSCLC): > 100 µM; TGI (A549 NSCLC): > 100 µM; GI50 (UACC-257 melanoma): > 100 µM; TGI (UACC-257 melanoma): > 100 µM; GI50 (SW-620 colon): > 100 µM; TGI (SW-620 colon): > 100 µM; GI50 (SK-MEL-2 melanoma): > 100 µM; TGI (SK-MEL-2 melanoma): > 100 µM; GI50 (MDA-MB-231 breast): > 100 µM; TGI (MDA-MB-231 breast): > 100 µM; GI50 (MCF7 breast): 1.97 µM; TGI (MCF7 breast): > 100 µM; GI50 (MALME-3M melanoma): > 100 µM; TGI (MALME-3M melanoma): > 100 µM; GI50 (NCI-H226 lung): > 100 µM; TGI (NCI-H226 lung): > 100 µM; GI50 (HOP-62 NSCLC): > 100 µM; TGI (HOP-62 NSCLC): > 100 µM; GI50 (M14 melanoma): > 100 µM; TGI (M14 melanoma): > 100 µM; GI50 (SNB-19 CNS): > 100 µM; TGI (SNB-19 CNS): > 100 µM; GI50 (786-0 renal): > 100 µM; TGI (786-0 renal): > 100 µM; GI50 (SNB-75 CNS): > 100 µM; TGI (SNB-75 CNS): > 100 µM; GI50 (HL-60(TB) leukemia): > 100 µM; TGI (HL-60(TB) leukemia): > 100 µM; GI50 (HCT-15 colon): 70.7 µM; TGI (HCT-15 colon): > 100 µM; GI50 (LOX IMVI melanoma): > 100 µM; TGI (LOX IMVI melanoma): > 100 µM; GI50 (T-47D breast): 5.98 µM; TGI (T-47D breast): > 100 µM; GI50 (SF-539 CNS): > 100 µM; TGI (SF-539 CNS): > 100 µM; GI50 (TK-10 renal): > 100 µM; TGI (TK-10 renal): > 100 µM; GI50 (RXF 393 renal): > 100 µM; TGI (RXF 393 renal): > 100 µM; GI50 (KM12 colon): > 100 µM; TGI (KM12 colon): > 100 µM; GI50 (HT29 colon): > 100 µM; TGI (HT29 colon): > 100 µM; GI50 (DU-145 prostate): > 100 µM; TGI (DU-145 prostate): > 100 µM; GI50 (SF-268 CNS): > 100 µM; TGI (SF-268 CNS): > 100 µM; GI50 (OVCAR-3 ovarian): 93.4 µM; TGI (OVCAR-3 ovarian): > 100 µM; GI50 (NCI/ADR-RES ovarian): > 100 µM; TGI (NCI/ADR-RES ovarian): > 100 µM; GI50 (NCI-H460 lung): > 100 µM; TGI (NCI-H460 lung): > 100 µM
